Where two headings read alike, the source gives them in different places.

The record followed here is patent US7355051B2, “Piperdine-amino-benzimidazole derivatives as inhibitors of respiratory syncytial virus replication” (Tibotec Pharmaceuticals, priority 2003, dated 2008).

For data set [1], the system named is Respiratory Syncytial Virus. The experiment in a line: microbe, parasite or virus in culture. It is filed as cell-based. The following applies: for EC50: human respiratory syncytial virus, 168 h. From the text: The percent protection against cytopathology caused by viruses (antiviral activity or EC50) achieved by tested compounds and their cytotoxicity (CC50) are both calculated from dose-response curves. The selectivity of the antiviral effect is represented by the selectivity index (SI), calculated by dividing the CC50 (cytotoxic dose for 50% of the cells) by the EC50 (antiviral activity for 50% of the cells).
Automated tetrazolium-based […] assays were used for determination of EC50 and CC50 of test compounds. Flat-bottom, 96-well plastic microtiter trays were filled with 180 μl of Eagle's Basal Medium, supplemented with 5% FCS (0% for FLU) and 20 mM Hepes buffer. Subsequently, stock solutions (7.8× final test concentration) of compounds were added in 45 μl volumes to a series of triplicate wells so as to allow simultaneous evaluation of their effects on virus- and mock-infected cells. Five five-fold dilutions were made directly in the microtiter trays using a robot system. Untreated virus controls, and HeLa cell controls were included in each test. Approximately 100 TCID50 of Respiratory Syncytial Virus was added to two of the three rows in a volume of 50 μl. The same volume of medium was added to the third row to measure the cytotoxicity of the compounds at the same concentrations as those used to measure the antiviral activity. After two hours of incubation, a suspension (4×10^5 cells/ml) of HeLa cells was added to all wells in a volume of 50 μl. The cultures were incubated at 37° C. in a 5% CO2 atmosphere. Seven days after infection the cytotoxicity and the antiviral activity was examined spectrophotometrically. To each well of the microtiter tray, 25 μl of a solution of MTT (3-(4,5-dimethylthiazol-2-yl)-2,5-diphenyltetrazolium bromide) was added. The trays were further incubated at 37° C. for 2 hours, after which the medium was removed from each cup. Solubilization of the formazan crystals was achieved by adding 100 μl 2-propanol. Complete dissolution of the formazan crystals were obtained after the trays have been placed on a plate shaker for 10 min. Finally, the absorbances were read in an eight-channel computer-controlled photometer (Multiskan MCC, Flow Laboratories) at two wavelengths (540 and 690 nm). The absorbance measured at 690 nm was automatically subtracted from the absorbance at 540 nm, so as to eliminate the effects of non-specific absorption.

Setting [2] is: Table 1, pEC50 (−log of EC50 in molar units), RSV-infected HeLa cells, MTT read-out seven days after infection, read-out: Activity (converted).
Where [3] appears, read: Table 3, pEC50 (−log of EC50 in molar units), RSV-infected HeLa cells, MTT read-out seven days after infection, read-out: Activity (converted).

For the compound `Cc1cc(C)c2nc(NC3CCN(CCC(N)=O)CC3)n(Cc3nc(C)ccc3O)c2c1`, the melting point (commonly the temperature, or range, at which the solid turns liquid) amounted to 212 °C. With “6-methyl-2-[4-methyl-2-(1-methyl-piperidin-4-ylamino)-benzoimidazol-1-ylmethyl]-pyridin-3-ol [Compound 34]”, the Activity in data set [1] (Table 3, pEC50 (−log of EC50 in molar units), RSV-infected HeLa cells, MTT read-out seven days after infection) was 6.8.

In turn, `Cc1cc(C)c2nc(NC3CCN(CCCS(N)(=O)=O)CC3)n(Cc3nc(C)ccc3O)c2c1` [Compound 1, 3-{4-[1-(3-hydroxy-6-methyl-pyridin-2-ylmethyl)-4,6-dimethyl-1H-benzoimidazol-2-ylamino]-piperidin-1-yl}-propane-1-sulfonic acid amide] registered a melting point of 180 °C. Also, the EC50 in data set [1] (setting [2]) is 2 nM. For `Cc1cc(C)c2nc(NC3CCN(CCO)CC3)n(Cc3nc(C)ccc3O)c2c1` [Compound 2, 2-{2-[1-(2-hydroxy-ethyl)-piperidin-4-ylamino]-4,6-dimethyl-benzoimidazol-1-ylmethyl}-6-methyl-pyridin-3-ol], in that order: 177 °C and 3.16 nM. Turning to `Cc1cc(C)c2nc(NC3CCN(CCCO)CC3)n(Cc3nc(C)ccc3O)c2c1` [Compound 4, 2-{2-[1-(3-hydroxy-propyl)-piperidin-4-ylamino]-4,6-dimethyl-benzoimidazol-1-ylmethyl}-6-methyl-pyridin-3-ol], the melting point is 209 °C. In addition, the EC50 in data set [1] (setting [2]) is 7.94 nM. Regarding `CCOC(=O)CCN1CCC(Nc2nc3c(C)cc(C)cc3n2Cc2nc(C)ccc2O)CC1` [Compound 10, 3-{4-[1-(3-Hydroxy-6-methyl-pyridin-2-ylmethyl)-4,6-dimethyl-1H-benzoimidazol-2-ylamino]-piperidin-1-yl}-propionic acid ethyl ester], the melting point came out at 172 °C. For the same compound, in data set [1] (setting [2]), the EC50 is 79.4 nM. As for `Cc1cc(C)c2c(c1)nc(NC1CCN(CCO)CC1)n2Cc1nc(C)ccc1O` [Compound 15, 2-{2-[1-(2-hydroxy-ethyl)-piperidin-4-ylamino]-5,7-dimethyl-benzoimidazol-1-ylmethyl}-6-methyl-pyridin-3-ol], the melting point was 143 °C. Moreover, the EC50 in data set [1] (Table 2, pEC50 (−log of EC50 in molar units), RSV-infected HeLa cells, MTT read-out seven days after infection, read-out: Activity (converted)) is 398 nM. For `Cc1ccc(O)c(Cn2c(NC3CCN(CCN4CCCC4)CC3)nc3c(C)cccc32)n1` [Compound 18, 6-Methyl-2-{4-methyl-2-[1-(2-pyrrolidin-1-yl-ethyl)-piperidin-4-ylamino]-benzoimidazol-1-ylmethyl}-pyridin-3-ol], the melting point was found to be 225 °C. In addition, in data set [1] (setting [3]), the EC50 was 10 nM. For `Cc1ccc(O)c(Cn2c(NC3CCN(CCCS(N)(=O)=O)CC3)nc3c(C)cccc32)n1` [Compound 19, 3-{4-[1-(3-hydroxy-6-methyl-pyridin-2-ylmethyl)-4-methyl-1H-benzoimidazol-2-ylamino]-piperidin-1-yl}-propane-1-sulfonic acid amide], in that order: 250 °C and 12.6 nM.

For the compound `Cc1ccc(O)c(Cn2c(NC3CCN(CCOC(=O)Cc4ccccc4)CC3)nc3c(C)cccc32)n1` [Compound 24, Phenyl-acetic acid 2-{4-[1-(3-hydroxy-6-methyl-pyridin-2-ylmethyl)-4-methyl-1H-benzoimidazol-2-ylamino]-piperidin-1-yl}-ethyl ester], the melting point came out at 207 °C. Moreover, the EC50 in data set [1] (HeLa, read-out: Activity) is 31.6 nM. Take `Cc1ccc(O)c(Cn2c(NC3CCN(CCC(N)=O)CC3)nc3c(C)cccc32)n1` [Compound 27, 3-{4-[1-(3-Hydroxy-6-methyl-pyridin-2-ylmethyl)-4-methyl-1H-benzoimidazol-2-ylamino]-piperidin-1-yl}-propionamide]: the melting point came out at 258 °C. Further, the EC50 in data set [1] (setting [3]) was 50.1 nM. Compound `CCOC(=O)CCN1CCC(Nc2nc3c(C)cccc3n2Cc2nc(C)ccc2O)CC1` [Compound 32, 3-{4-[1-(3-Hydroxy-6-methyl-pyridin-2-ylmethyl)-4-methyl-1H-benzoimidazol-2-ylamino]-piperidin-1-yl}-propionic acid ethyl ester] showed a melting point of 226 °C. In addition, the EC50 in data set [1] (setting [3]) is 158 nM. `Cc1ccc(O)c(Cn2c(NC3CCN(CCC(=O)O)CC3)nc3c(C)cccc32)n1.Cl` [Compound 33, 3-{4-[1-(3-hydroxy-6-methyl-pyridin-2-ylmethyl)-4-methyl-1H-benzoimidazol-2-ylamino]-piperidin-1-yl}-propionic acid hydrochloride salt] showed a melting point of 245 °C. Moreover, in data set [1] (setting [3]), the EC50 was 158 nM. For `Cc1ccc(O)c(Cn2c(NC3CCN(CC(O)C(C)C)CC3)nc3c(C)cccc32)n1` (stereo not drawn) [Compound 35, 2-{2-[1-(2-hydroxy-3-methyl-butyl)-piperidin-4-ylamino]-4-methyl-benzoimidazol-1-ylmethyl}-6-methyl-pyridin-3-ol], in that order: 230 °C and 158 nM. For `Cc1ccc(O)c(Cn2c(NC3CCN(CCOC(N)=O)CC3)nc3c(C)cccc32)n1` [Compound 37, Carbamic acid 2-{4-[1-(3-hydroxy-6-methyl-pyridin-2-ylmethyl)-4-methyl-1H-benzoimidazol-2-ylamino]-piperidin-1-yl}-ethyl ester], in that order: 222 °C and 158 nM.

As for `COc1ccc(OCC(O)CN2CCC(Nc3nc4c(C)cccc4n3Cc3nc(C)ccc3O)CC2)cc1` (stereo not drawn) [Compound 41, 2-(2-{1-[2-hydroxy-3-(4-methoxy-phenoxy)-propyl]-piperidin-4-ylamino}-4-methyl-benzoimidazol-1-ylmethyl)-6-methyl-pyridin-3-ol], the melting point was 227 °C. In addition, in data set [1] (setting [3]), the EC50 was 316 nM.
